Measurements: ChEMBL document CHEMBL4017472, “New modified 2-aminobenzimidazole nucleosides: Synthesis and evaluation of their activity against herpes simplex virus type 1” (Bioorg Med Chem Lett, 2017)

Legend:
[1] = Selectivity index, ratio of MCC for African green monkey Vero E6 cells to IC50 for HSV-1 L2 infected in African green monkey Vero E6 cells; set-up: species or system Vero C1008
[2] = Cytotoxicity against African green monkey Vero E6 cells measured after 3 days by trypan blue assay; type: cell-based, Vero C1008; details: chlorocebus sabaeus
Human alphaherpesvirus 1 [3] = experiment: Antiviral activity against HSV-1 L2/Rp-ACV/2 infected in African green monkey Vero E6 cells assessed as reduction in virus-induced cytopathic effect; type: functional; details: Human alphaherpesvirus 1, L2/Rp-ACV/2, Vero C1008
Human alphaherpesvirus 1 [4] = experiment: Antiviral activity against acyclovir and cidofovir-resistant HSV-1 L2 infected in African green monkey Vero E6 cells assessed as reduction in virus-induced cytopathic effect; type: functional; details: Human alphaherpesvirus 1, L2, Vero C1008
Human alphaherpesvirus 1 [5] = experiment: Antiviral activity against acyclovir-resistant HSV-1 L2 infected in African green monkey Vero E6 cells assessed as reduction in virus-induced cytopathic effect; type: functional; details: Human alphaherpesvirus 1, L2, Vero C1008
Human alphaherpesvirus 1 [6] = experiment: Antiviral activity against foscarnet-resistant HSV-1 F+ infected in African green monkey Vero E6 cells assessed as reduction in virus-induced cytopathic effect; type: functional; details: Human alphaherpesvirus 1, F+, Vero C1008
[7] = Selectivity index, ratio of MCC for African green monkey Vero E6 cells to IC50 for acyclovir-resistant HSV-1 L2 infected in African green monkey Vero E6 cells; set-up: species or system Vero C1008
[8] = Selectivity index, ratio of MCC for African green monkey Vero E6 cells to IC50 for HSV-1 F+ infected in African green monkey Vero E6 cells; set-up: species or system Vero C1008
[9] = Selectivity index, ratio of MCC for African green monkey Vero E6 cells to IC50 for HSV-1 L2/Rp-ACV/2 infected in African green monkey Vero E6 cells; set-up: species or system Vero C1008
Human alphaherpesvirus 1 [10] = experiment: Antiviral activity against HSV1 L2 infected in African green monkey Vero E6 cells assessed as reduction in virus-induced cytopathic effect; type: functional; details: Human alphaherpesvirus 1, L2, Vero C1008
[11] = Selectivity index, ratio of MCC for African green monkey Vero E6 cells to IC50 for acyclovir and cidofovir-resistant HSV-1 L2 infected in African green monkey Vero E6 cells; set-up: species or system Vero C1008
Human alphaherpesvirus 1 [12] = experiment: Antiviral activity against acyclovir and foscarnet-resistant HSV-1 L2 infected in African green monkey Vero E6 cells assessed as reduction in virus-induced cytopathic effect; type: functional; details: Human alphaherpesvirus 1, L2, Vero C1008
[13] = Selectivity index, ratio of MCC for African green monkey Vero E6 cells to IC50 for acyclovir and foscarnet-resistant HSV-1 L2 infected in African green monkey Vero E6 cells; set-up: species or system Vero C1008

Nc1ccn(C[C@@H](CO)OCP(=O)(O)O)c(=O)n1.O.O [CIDOFOVIR]
Selectivity Index [1]: >26 | MCC at 72 h [2]: > 358 µM | IC50 (Human alphaherpesvirus 1 [3]): 1.8 µM | IC95 (Human alphaherpesvirus 1 [3]): 27.9 µM | IC50 (Human alphaherpesvirus 1 [4]): 112 µM | IC95 (Human alphaherpesvirus 1 [4]): 895 µM | IC50 (Human alphaherpesvirus 1 [5]): 14 µM | IC95 (Human alphaherpesvirus 1 [5]): 55.9 µM | IC50 (Human alphaherpesvirus 1 [6]): 27.9 µM | IC95 (Human alphaherpesvirus 1 [6]): 448 µM | Selectivity Index [7]: >26 | Selectivity Index [8]: >13 | Selectivity Index [9]: >204 | IC50 (Human alphaherpesvirus 1 [10]): 14 µM | IC95 (Human alphaherpesvirus 1 [10]): 55.9 µM | Selectivity Index [11]: >6.4 | IC50 (Human alphaherpesvirus 1 [12]): 7 µM | IC95 (Human alphaherpesvirus 1 [12]): 27.9 µM | Selectivity Index [13]: >51

O.O.O.O.O.O.O=C([O-])P(=O)([O-])[O-].[Na+].[Na+].[Na+]
Selectivity Index [1]: 8 | MCC at 72 h [2]: 833 µM | IC50 (Human alphaherpesvirus 1 [3]): 52 µM | IC95 (Human alphaherpesvirus 1 [3]): 104 µM | IC50 (Human alphaherpesvirus 1 [4]): 104 µM | IC95 (Human alphaherpesvirus 1 [4]): 208 µM | IC50 (Human alphaherpesvirus 1 [5]): 104 µM | IC95 (Human alphaherpesvirus 1 [5]): 208 µM | IC50 (Human alphaherpesvirus 1 [6]): 833 µM | IC95 (Human alphaherpesvirus 1 [6]): > 833 µM | Selectivity Index [7]: 8 | Selectivity Index [8]: 1 | Selectivity Index [9]: 16 | IC50 (Human alphaherpesvirus 1 [10]): 104 µM | IC95 (Human alphaherpesvirus 1 [10]): 208 µM | Selectivity Index [11]: 8 | IC50 (Human alphaherpesvirus 1 [12]): 417 µM | IC95 (Human alphaherpesvirus 1 [12]): > 833 µM | Selectivity Index [13]: 2

CC(C)Nc1nc2cc(Cl)c(Cl)cc2n1[C@H]1O[C@@H](CO)[C@H](O)[C@@H]1O [MARIBAVIR]
Selectivity Index [1]: 1 | MCC at 72 h [2]: 665 µM | IC50 (Human alphaherpesvirus 1 [10]): 665 µM | IC95 (Human alphaherpesvirus 1 [10]): > 665 µM

Nc1nc2c(ncn2COCCO)c(=O)[nH]1 [ACYCLOVIR]
Selectivity Index [1]: >256 | MCC at 72 h [2]: > 444 µM | IC50 (Human alphaherpesvirus 1 [3]): 27.8 µM | IC95 (Human alphaherpesvirus 1 [3]): 111 µM | IC50 (Human alphaherpesvirus 1 [4]): 17.3 µM | IC95 (Human alphaherpesvirus 1 [4]): 139 µM | IC50 (Human alphaherpesvirus 1 [5]): > 444 µM | IC95 (Human alphaherpesvirus 1 [5]): > 444 µM | IC50 (Human alphaherpesvirus 1 [6]): 3.5 µM | IC95 (Human alphaherpesvirus 1 [6]): 13.9 µM | Selectivity Index [7]: >1 | Selectivity Index [8]: >128 | Selectivity Index [9]: 16 | IC50 (Human alphaherpesvirus 1 [10]): 1.73 µM | IC95 (Human alphaherpesvirus 1 [10]): 6.9 µM | Selectivity Index [11]: >26 | IC50 (Human alphaherpesvirus 1 [12]): > 444 µM | IC95 (Human alphaherpesvirus 1 [12]): > 444 µM | Selectivity Index [13]: >1

NC(=O)c1ncn([C@@H]2O[C@H](CO)[C@@H](O)[C@H]2O)n1 [RIBAVIRIN]
Selectivity Index [1]: >8 | MCC at 72 h [2]: > 4100 µM | IC50 (Human alphaherpesvirus 1 [3]): 1020 µM | IC95 (Human alphaherpesvirus 1 [3]): > 4100 µM | IC50 (Human alphaherpesvirus 1 [4]): 1020 µM | IC95 (Human alphaherpesvirus 1 [4]): > 4100 µM | IC50 (Human alphaherpesvirus 1 [5]): 1020 µM | IC95 (Human alphaherpesvirus 1 [5]): > 4100 µM | IC95 (Human alphaherpesvirus 1 [6]): > 4100 µM | Selectivity Index [7]: >4 | Selectivity Index [8]: >4 | Selectivity Index [9]: >4 | IC50 (Human alphaherpesvirus 1 [10]): 512 µM | IC95 (Human alphaherpesvirus 1 [10]): 2050 µM | Selectivity Index [11]: >4 | IC50 (Human alphaherpesvirus 1 [12]): 1020 µM | IC95 (Human alphaherpesvirus 1 [12]): > 4100 µM | Selectivity Index [13]: >4

Nc1nc2cc(F)c(F)cc2n1[C@H]1C[C@H](O)[C@@H](CO)O1
Selectivity Index [1]: >4 | MCC at 72 h [2]: > 3500 µM | IC50 (Human alphaherpesvirus 1 [10]): 876 µM | IC95 (Human alphaherpesvirus 1 [10]): 3510 µM
